PubChem BioAssay AID504827 (Southern Research Specialized Biocontainment Screening …, 2011)
The source made the active and inactive calls. No rule for the calls is given here.

Assays:
[1] = system: RSV-infected cells, CPE inhibition; experiment: RSV cytopathic effect inhibition, dose response, cell-based, synthesized compounds, set 10 (AID 504827)
[2] = as above; conditions: RSV-infected cells, CPE inhibition; at 200 µM (top of the series)

| Compound | IC50 [1] [µM] | CPE inhibition [2] |
| --- | --- | --- |
| Cc1ccc(Cn2c(=O)n(Cc3ccc(C(=O)Nc4ccncc4)cc3)c(=O)c3ccccc32)cc1 | 9.9 |  |
| Cc1ccc(NC(=O)[C@@H]2CCCN2S(=O)(=O)c2cccc3cccnc23)c(C)c1 | 2.1 |  |
| COc1ccc(C)c(NC(=O)[C@@H]2CCCN2S(=O)(=O)c2cccc3cccnc23)c1 | 4.6 |  |
| Cc1cc(NC(=O)[C@@H]2CCCN2S(=O)(=O)c2cccc3cccnc23)n(C(C)(C)C)n1 |  | 4.92% (inactive) |
